Source: PubChem BioAssay AID248 (DTP/NCI, 2004)
Values joined by “and” are separate entries in the source; they are usually repeats but may differ in a detail not shown here. Equal entries are not always repeated. Toxic doses and inconclusive results are not listed. Cut-off read from the data, not from the text of the source: active = T/C of 150% or more; inactive = T/C below 125%.

Test system: L1210 leukemia ip in BDF1 mice, survival T/C
Test: NCI In Vivo Anticancer Drug Screen. Data for tumor model L1210 Leukemia (intraperitoneal) in B6D2F1 (BDF1) mice
Details: endpoint: mean survival time, higher = longer survival
Procedure, shortened: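 Antitumor effect is assessed in tumor-bearing animals. Survival in the compound arm is compared with a vehicle-dosed control arm and expressed as their quotient.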

[1] = dose: 100.0 mg/kg/injection, schedule: Q01DX001 (ip), vehicle: Klucel (hydroxypropylcellulose) (HPC)
[2] = dose: 200.0 mg/kg/injection, schedule: Q01DX001 (ip), vehicle: Klucel (hydroxypropylcellulose) (HPC)
[3] = dose: 400.0 mg/kg/injection, schedule: Q01DX001 (ip), vehicle: Klucel (hydroxypropylcellulose) (HPC)
[4] = dose: 100.0 mg/kg/injection, schedule: Q01DX009 (ip), vehicle: saline with Tween-80
[5] = dose: 25.0 mg/kg/injection, schedule: Q01DX009 (ip), vehicle: saline
[6] = dose: 50.0 mg/kg/injection, schedule: Q01DX009 (ip), vehicle: saline
[7] = dose: 25.0 mg/kg/injection, schedule: Q04DX003 (ip), vehicle: saline
[8] = dose: 50.0 mg/kg/injection, schedule: Q04DX003 (ip), vehicle: saline
[9] = dose: 100.0 mg/kg/injection, schedule: Q01DX001 (ip), vehicle: saline
[10] = dose: 200.0 mg/kg/injection, schedule: Q01DX001 (ip), vehicle: saline
[11] = dose: 400.0 mg/kg/injection, schedule: Q01DX001 (ip), vehicle: saline
[12] = dose: 100.0 mg/kg/injection, schedule: Q04DX003 (ip), vehicle: saline with Tween-80
[13] = dose: 200.0 mg/kg/injection, schedule: Q01DX009 (ip), vehicle: saline with Tween-80
[14] = dose: 200.0 mg/kg/injection, schedule: Q04DX003 (ip), vehicle: saline with Tween-80
[15] = dose: 100.0 mg/kg/injection, schedule: Q01DX009 (ip), vehicle: saline
[16] = dose: 100.0 mg/kg/injection, schedule: Q04DX003 (ip), vehicle: saline

Measured: T/C

c1ccc(Nc2nnc(Nc3ccccc3)s2)cc1
inactive: [1] 92 % of control | [2] 103 % of control | [3] 106 % of control

CC(C)(C)c1ccc(O)cc1
inactive: [4] 89 % of control

O=C(Nc1cccc2ccccc12)Oc1ccc(Cl)cc1Cc1ccccc1
inactive: dose: 12.5 mg/kg/injection, schedule: Q04DX002 (ip), vehicle: Klucel (hydroxypropylcellulose) (HPC) 123 % of control | dose: 25.0 mg/kg/injection, schedule: Q04DX002 (ip), vehicle: Klucel (hydroxypropylcellulose) (HPC) 105 % of control | dose: 50.0 mg/kg/injection, schedule: Q04DX002 (ip), vehicle: Klucel (hydroxypropylcellulose) (HPC) 94 % of control | dose: 100.0 mg/kg/injection, schedule: Q04DX002 (ip), vehicle: Klucel (hydroxypropylcellulose) (HPC) 92 % of control | dose: 200.0 mg/kg/injection, schedule: Q04DX002 (ip), vehicle: Klucel (hydroxypropylcellulose) (HPC) 89 % of control

COc1cc([C@@H]2c3cc4c(cc3[C@H](SC(=N)N)[C@H]3COC(=O)[C@H]23)OCO4)cc(OC)c1OC
inactive: dose: 5.0 mg/kg/injection, schedule: Q01DX Z (ip), vehicle: carboxymethylcellulose (CMC) 98 % of control | dose: 6.0 mg/kg/injection, schedule: Q01DX Z (ip), vehicle: carboxymethylcellulose (CMC) 109 % of control | dose: 10.0 mg/kg/injection, schedule: Q01DX Z (ip), vehicle: carboxymethylcellulose (CMC) 103 % of control | dose: 12.0 mg/kg/injection, schedule: Q01DX Z (ip), vehicle: carboxymethylcellulose (CMC) 112 % of control | dose: 18.0 mg/kg/injection, schedule: Q01DX Z (ip), vehicle: carboxymethylcellulose (CMC) 108 % of control | dose: 18.0 mg/kg/injection, schedule: Q01DX Z (ip), vehicle: methylcellulose (MC) 103 % of control | dose: 24.0 mg/kg/injection, schedule: Q01DX Z (ip), vehicle: carboxymethylcellulose (CMC) 112 % of control | [5] 118 % of control | dose: 27.0 mg/kg/injection, schedule: Q01DX Z (ip), vehicle: carboxymethylcellulose (CMC) 100 % of control | dose: 37.5 mg/kg/injection, schedule: Q04DX003 (ip), vehicle: saline 104 % of control | dose: 48.0 mg/kg/injection, schedule: Q01DX Z (ip), vehicle: carboxymethylcellulose (CMC) 109 % of control | [6] 88 % of control | dose: 60.0 mg/kg/injection, schedule: Q01DX Z (ip), vehicle: methylcellulose (MC) 109 % of control | dose: 75.0 mg/kg/injection, schedule: Q04DX003 (ip), vehicle: saline 105 % of control | dose: 150.0 mg/kg/injection, schedule: Q04DX003 (ip), vehicle: saline 89 % of control

O=[N+]([O-])c1ccc(C[n+]2ccc3ccccc3c2)cc1
inactive: dose: 12.5 mg/kg/injection, schedule: Q01DX009 (ip), vehicle: saline 96 % of control | dose: 12.5 mg/kg/injection, schedule: Q04DX003 (ip), vehicle: saline 97 % of control | [5] 95 % of control | [7] 92 % of control | [6] 101 % of control | [8] 92 % of control

CCCN(CCC)S(=O)(=O)c1ccc(NC(=O)OC(c2ccccc2)(c2ccccc2)c2ccccc2)cc1
inactive: [9] 100 % of control | [10] 97 % of control | [11] 94 % of control

O=C(NC(=O)c1ccc([N+](=O)[O-])cc1)OCCCl
inactive: [1] 92 % of control | [2] 97 % of control | [3] 105 % of control

CCCCCCCCN1N=C(C)CCC1=O
inactive: [9] 101 % of control | [10] 90 % of control | [11] 101 % of control

Cc1cc(NC(=O)c2ccccc2)c(Cl)cc1N
inactive: dose: 50.0 mg/kg/injection, schedule: Q01DX009 (ip), vehicle: saline with Tween-80 105 % of control | dose: 50.0 mg/kg/injection, schedule: Q04DX003 (ip), vehicle: saline with Tween-80 94 % of control | [4] 98 % of control | [12] 98 % of control | [13] 93 % of control | [14] 93 % of control

CCN1Cc2ccc(O)cc2C1
inactive: [5] 103 % of control | [7] 107 % of control | [6] 95 % of control | [8] 107 % of control | [15] 96 % of control and 97 % of control | [16] 100 % of control and 102 % of control

COc1ccc(-n2cnc3c(=O)[nH]c(N)nc32)cc1
inactive: [10] 92 % of control

CCC[CH2][Sn]([Br])([CH2]CCC)[CH2]CCC
inactive: dose: 3.13 mg/kg/injection, schedule: Q01DX009 (ip), vehicle: carboxymethylcellulose (CMC) 93 % of control and 103 % of control | dose: 6.25 mg/kg/injection, schedule: Q01DX009 (ip), vehicle: carboxymethylcellulose (CMC) 103 % of control (2×) and 104 % of control | dose: 6.25 mg/kg/injection, schedule: Q04DX003 (ip), vehicle: carboxymethylcellulose (CMC) 96 % of control | dose: 12.5 mg/kg/injection, schedule: Q01DX009 (ip), vehicle: carboxymethylcellulose (CMC) 93 % of control and 101 % of control and 103 % of control | dose: 12.5 mg/kg/injection, schedule: Q04DX002 (ip), vehicle: carboxymethylcellulose (CMC) 92 % of control and 103 % of control | dose: 12.5 mg/kg/injection, schedule: Q04DX003 (ip), vehicle: carboxymethylcellulose (CMC) 107 % of control | dose: 25.0 mg/kg/injection, schedule: Q04DX002 (ip), vehicle: carboxymethylcellulose (CMC) 93 % of control and 98 % of control

O=C(CCN1CCCCCCC1)c1cccc([N+](=O)[O-])c1
inactive: [7] 97 % of control | [6] 101 % of control | [8] 104 % of control | [15] 91 % of control | [16] 97 % of control and 105 % of control

CC(=O)CC(SCCSCCSC(CC(C)=O)c1ccccc1)c1ccccc1 (configuration not stated)
inactive: dose: 50.0 mg/kg/injection, schedule: Q01DX001 (ip), vehicle: carboxymethylcellulose (CMC) 89 % of control | dose: 100.0 mg/kg/injection, schedule: Q01DX001 (ip), vehicle: carboxymethylcellulose (CMC) 89 % of control | dose: 200.0 mg/kg/injection, schedule: Q01DX001 (ip), vehicle: carboxymethylcellulose (CMC) 97 % of control | dose: 400.0 mg/kg/injection, schedule: Q01DX001 (ip), vehicle: carboxymethylcellulose (CMC) 97 % of control

CC(C)C(Cl)C(=O)O (configuration not stated)
inactive: dose: 75.0 mg/kg/injection, schedule: Q01DX001 (ip), vehicle: saline 96 % of control | dose: 150.0 mg/kg/injection, schedule: Q01DX001 (ip), vehicle: saline 104 % of control

CNC(=O)Oc1c([N+](=O)[O-])c([N+](=O)[O-])cc2ccccc12
inactive: dose: 75.0 mg/kg/injection, schedule: Q01DX001 (ip), vehicle: other 100 % of control

CN(C)N=Nc1ccc([N+](=O)[O-])cc1Cl
inactive: [12] 101 % of control | dose: 134.0 mg/kg/injection, schedule: Q01DX009 (ip), vehicle: saline with Tween-80 113 % of control | [13] 115 % of control | [14] 105 % of control | dose: 400.0 mg/kg/injection, schedule: Q04DX003 (ip), vehicle: saline with Tween-80 112 % of control

CCOC1(OCC)CCS(=O)(=O)C1c1ccccc1 (configuration not stated)
inactive: dose: 100.0 mg/kg/injection, schedule: Q01DX001 (ip), vehicle: acetone 104 % of control | dose: 100.0 mg/kg/injection, schedule: Q01DX009 (ip), vehicle: acetone 98 % of control | dose: 200.0 mg/kg/injection, schedule: Q01DX001 (ip), vehicle: acetone 98 % of control | dose: 200.0 mg/kg/injection, schedule: Q01DX009 (ip), vehicle: acetone 104 % of control | dose: 400.0 mg/kg/injection, schedule: Q01DX001 (ip), vehicle: acetone 96 % of control | dose: 400.0 mg/kg/injection, schedule: Q01DX009 (ip), vehicle: acetone 100 % of control
